Source: the supplement of paper PMC8671470

Key:
Conditions in all cases: 72 h
[1] = system: myeloid leukemia patient primary cells Pat.10; assay: cell viability (% survival relative to DMSO control); higher = less cytotoxic
Summary of the method: (§1)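 Where an area under the curve appears, it was computed with the drc and PharmacoGx R packages from log-logistic fits. Those fits used four parameters. The underlying viability data came from CellTiter-Glo after 72 h, normalised to DMSO and 10 μM proteasome-inhibitor wells, with thawed, Ficoll-purified AML or CML patient mononuclear cells at 10,000 cells/well in RPMI 1640 with 10% FBS on 384-well plates pre-printed with 70 compounds at five tenfold concentrations (1–10,000 nM) in duplicate.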

[2] = system: myeloid leukemia patient primary cells Pat.11; assay: as above
Summary of the method: as §1

[3] = system: myeloid leukemia patient primary cells Pat.12; assay: as above
Summary of the method: as §1

[4] = system: myeloid leukemia patient primary cells Pat.13; assay: as above
Summary of the method: as §1

[5] = system: myeloid leukemia patient primary cells Pat.14; assay: as above
Summary of the method: as §1

[6] = system: myeloid leukemia patient primary cells Pat.15; assay: as above
Summary of the method: as §1

[7] = system: myeloid leukemia patient primary cells Pat.1; assay: as above
Summary of the method: as §1

[8] = system: myeloid leukemia patient primary cells Pat.2; assay: as above
Summary of the method: as §1

[9] = system: myeloid leukemia patient primary cells Pat.3; assay: as above
Summary of the method: as §1

[10] = system: myeloid leukemia patient primary cells Pat.4; assay: as above
Summary of the method: as §1

[11] = system: myeloid leukemia patient primary cells Pat.5; assay: as above
Summary of the method: as §1

[12] = system: myeloid leukemia patient primary cells Pat.6; assay: as above
Summary of the method: as §1

[13] = system: myeloid leukemia patient primary cells Pat.7; assay: as above
Summary of the method: as §1

[14] = system: myeloid leukemia patient primary cells Pat.8; assay: as above
Summary of the method: as §1

[15] = system: myeloid leukemia patient primary cells Pat.9; assay: as above
Summary of the method: as §1

KU-812 = assay: cell viability (% survival relative to DMSO control, bortezomib = 0%); higher = less cytotoxic
Summary of the method: (§2)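 Fifteen myeloid leukaemia cell lines (10 AML, 5 CML) were seeded at a density titrated to the linear growth range into 384-well plates pre-printed with compounds at 1, 10, 100, 1000 or 10000 nM in duplicate. Plates were incubated for 72 h at 37 °C with 5% CO2. Viability was then read by CellTiter-Glo luminescence. Each value is percent survival averaged over the duplicates, with vehicle set to 100% and a 10 µM positive control to 0%.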

MOLM-13 = assay: as above
Summary of the method: as §2

NOMO-1 = assay: as above
Summary of the method: as §2

THP-1 = assay: as above
Summary of the method: as §2

In the case of `Nc1ccn([C@@H]2O[C@H](CO)[C@@H](O)C2(F)F)c(=O)n1` [Gemcitabine], the cell viability ([1]; 1 nM) is reported as 67.4%, the cell viability ([1]; 10 nM) is reported as 32.6% and the cell viability ([1]; 100 nM) is reported as 64.3%. For the same compound, the cell viability ([1]; 1000 nM) was 45.5%, the cell viability ([1]; 10000 nM) was 7.03% and the cell viability ([2]; 1 nM) was 95.3%. For the same compound, the cell viability ([2]; 10 nM) was 91.6%, the cell viability ([2]; 100 nM) was greater than 100% and the cell viability ([2]; 1000 nM) was 83.6%. It also gave a cell viability ([2]; 10000 nM) of 67.2%, a cell viability ([3]; 1 nM) of 96.3% and a cell viability ([3]; 10 nM) of 95.9%. It also gave a cell viability ([3]; 100 nM) of 98.4%, a cell viability ([3]; 1000 nM) of 92.4% and a cell viability ([3]; 10000 nM) of 82.8%. The cell viability ([4]; 1 nM) was 89.5%, the cell viability ([4]; 10 nM) was 84.5% and the cell viability ([4]; 100 nM) was 90.2%. For the same compound, the cell viability ([4]; 1000 nM) was 86.3%, the cell viability ([4]; 10000 nM) was 36.4% and the cell viability ([5]; 1 nM) was 52.8%. It also gave a cell viability ([5]; 10 nM) of 44.5%, a cell viability ([5]; 100 nM) greater than 100% and a cell viability ([5]; 1000 nM) of 67.4%. It also gave a cell viability ([5]; 10000 nM) of 25.8%, a cell viability ([6]; 1 nM) of 96.3% and a cell viability ([6]; 10 nM) of 80.8%. The cell viability ([6]; 100 nM) was 82.5%, the cell viability ([6]; 1000 nM) was 78% and the cell viability ([6]; 10000 nM) was 41.8%. The cell viability ([7]; 1 nM) was 83.4%, the cell viability ([7]; 10 nM) was 92.9% and the cell viability ([7]; 100 nM) was 99.6%. The cell viability ([7]; 1000 nM) was 76.6%, the cell viability ([7]; 10000 nM) was 54.5% and the cell viability ([8]; 1 nM) was 90.2%. For the same compound, the cell viability ([8]; 10 nM) was 95.4%, the cell viability ([8]; 100 nM) was 98.4% and the cell viability ([8]; 1000 nM) was 82.9%. The cell viability ([8]; 10000 nM) was 48.5%, the cell viability ([9]; 1 nM) was 61.9% and the cell viability ([9]; 10 nM) was 22.1%. The cell viability ([9]; 100 nM) was 25%, the cell viability ([9]; 1000 nM) was 7.9% and the cell viability ([9]; 10000 nM) was 4.31%. The cell viability ([10]; 1 nM) was 75.4%, the cell viability ([10]; 10 nM) was 93.4% and the cell viability ([10]; 100 nM) was 82.8%. The cell viability ([10]; 1000 nM) was 62.2%, the cell viability ([10]; 10000 nM) was 32.2% and the cell viability ([11]; 1 nM) was 4.78%. For the same compound, the cell viability ([11]; 10 nM) was 2.01%, the cell viability ([11]; 100 nM) was 88.3% and the cell viability ([11]; 1000 nM) was 27.6%. The cell viability ([11]; 10000 nM) was 2.39%, the cell viability ([12]; 1 nM) was 77.8% and the cell viability ([12]; 10 nM) was 84%. For the same compound, the cell viability ([12]; 100 nM) was 98.2%, the cell viability ([12]; 1000 nM) was 91.2% and the cell viability ([12]; 10000 nM) was 81.8%. For the same compound, the cell viability ([13]; 1 nM) was 52.6%, the cell viability ([13]; 10 nM) was 3.48% and the cell viability ([13]; 100 nM) was 95.9%. The cell viability ([13]; 1000 nM) was 65%, the cell viability ([13]; 10000 nM) was 16.3% and the cell viability ([14]; 1 nM) was 76.5%. It also gave a cell viability ([14]; 10 nM) of 71.6%, a cell viability ([14]; 100 nM) of 91.5% and a cell viability ([14]; 1000 nM) of 85.4%. The cell viability ([14]; 10000 nM) was 33.7%, the cell viability ([15]; 1 nM) was 3.95% and the cell viability ([15]; 10 nM) was 6.11%. For the same compound, the cell viability ([15]; 100 nM) was 56.7%, the cell viability ([15]; 1000 nM) was 15.4% and the cell viability ([15]; 10000 nM) was 6.78%. The cell viability (KU-812; 1 nM) was 90.8%, the cell viability (KU-812; 10 nM) was 17.4% and the cell viability (KU-812; 100 nM) was 7.87%. For the same compound, the cell viability (KU-812; 1000 nM) was 6.94%, the cell viability (KU-812; 10000 nM) was 6.04% and the cell viability (MOLM-13; 1 nM) was 96.6%. It also gave a cell viability (MOLM-13; 10 nM) of 2.43%, a cell viability (MOLM-13; 100 nM) of 0.0219% and a cell viability (MOLM-13; 1000 nM) of 0.303%. It also gave a cell viability (MOLM-13; 10000 nM) of 0.34%, a cell viability (NOMO-1; 1 nM) of 103% and a cell viability (NOMO-1; 10 nM) of 24.5%. It also gave a cell viability (NOMO-1; 100 nM) of 3.18%, a cell viability (NOMO-1; 1000 nM) of 1.37% and a cell viability (NOMO-1; 10000 nM) of 0.238%. The cell viability (THP-1; 1 nM) was 110%, the cell viability (THP-1; 10 nM) was 44.4% and the cell viability (THP-1; 100 nM) was 30.5%. It also gave a cell viability (THP-1; 1000 nM) of 23.5% and a cell viability (THP-1; 10000 nM) of 20.4%.
